For this assay, the target named is DOT1L(1-416) (Homo sapiens, UniProt Q8TEK3). The experiment in a line: Determination of IC50: DOT1L(1-416) methyltransferase assay, 3H-SAM, oligonucleosome substrate, Flashplate. It is filed as biochemical. The following applies: class symbols; read-out: DOT1L IC50. How it is done: Determination of IC50. Test compounds were serially diluted 3 fold in DMSO for 10 points and 1 μl was plated in a 384 well microtiter plate. […] 10 μl per well of substrate mix (same assay buffer with 200 nM S-[methyl-^3H]-adenosyl-L methionine, 600 nM of unlabeled […], and 20 nM oligonueleosome) was added to initiate the reaction. Reaction was incubated for 120 minutes at room temperature and quenched with 10 μl per well of 100 μM S-methyl-adenosyl-L methionine. For detection, substrate from 50 μl of reaction was immobilized on a 384 well Streptavidin coated Flashplate (Perkin Elmer) (also coated with 0.2% polyethyleneimine) and read on a Top Count scintillation counter (Perkin Elmer).
Sequence of DOT1L(1-416) (Q8TEK3 1-416): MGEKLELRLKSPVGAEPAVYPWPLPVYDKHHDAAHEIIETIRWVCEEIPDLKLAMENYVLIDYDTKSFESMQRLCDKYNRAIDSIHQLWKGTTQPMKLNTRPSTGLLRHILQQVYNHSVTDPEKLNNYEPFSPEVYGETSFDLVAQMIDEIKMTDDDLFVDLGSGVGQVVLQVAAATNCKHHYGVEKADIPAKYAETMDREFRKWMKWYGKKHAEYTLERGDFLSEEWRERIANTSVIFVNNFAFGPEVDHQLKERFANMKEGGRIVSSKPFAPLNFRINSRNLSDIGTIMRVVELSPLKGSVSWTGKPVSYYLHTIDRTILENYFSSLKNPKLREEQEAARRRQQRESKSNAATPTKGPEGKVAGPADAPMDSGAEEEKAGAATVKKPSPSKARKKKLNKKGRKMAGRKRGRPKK
With `CC(C)N(C[C@H]1O[C@@H](n2cnc3c(N)ncnc32)[C@H](O)[C@@H]1O)[C@H]1C[C@@H](CCc2nc3cc(C4(C)CCC4)ccc3[nH]2)C1` [Compound 28, (2R,3R,4S,5R)-2-(6-amino-9H-purin-9-yl)-5-((isopropyl((1r,3S)-3-(2-(5-(1-methylcyclobutyl)-1H-benzo[d]imidazol-2-yl)ethyl)cyclobutyl)amino)methyl)tetrahydrofuran-3,4-diol], the concentration for half-maximal inhibition (IC50) is less than 100 nM.
Next, `CN(C[C@H]1C[C@@H](n2ccc3c(N)ncnc32)[C@H](O)[C@@H]1O)C1CC(CCc2nc3cc(C4(C)CCC4)ccc3[nH]2)C1` (stereo partly drawn) [Compound 29, (1R,2S,3R,5R)-3-(4-amino-7H-pyrrolo[2,3-d]pyrimidin-7-yl)-5-((methyl(3-(2-(5-(1-methylcyclobutyl)-1H-benzo[d]imidazol-2-yl)ethyl)cyclobutyl)amino)methyl)cyclopentane-1,2-diol]: less than 100 nM; `CN(C[C@H]1O[C@@H](n2cnc3c(N)ncnc32)[C@H](O)[C@@H]1O)[C@H]1C[C@@H](CCc2nc3cc(C4(C)CCC4)ccc3[nH]2)C1` [Compound 30, (2R,3R,4S,5R)-2-(6-amino-9H-purin-9-yl)-5-((methyl((1r,3S)-3-(2-(5-(1-methylcyclobutyl)-1H-benzo[d]imidazol-2-yl)ethyl)cyclobutyl)amino)methyl)tetrahydrofuran-3,4-diol]: less than 100 nM; `CC(C)N(C[C@H]1O[C@@H](n2cnc3c(N)ncnc32)[C@H](O)[C@@H]1O)[C@H]1C[C@H](CCc2nc3cc(C4(C)CCC4)ccc3[nH]2)C1` [Compound 31, (2R,3R,4S,5R)-2-(6-amino-9H-purin-9-yl)-5-((isopropyl((1s,3R)-3-(2-(5-(1-methylcyclobutyl)-1H-benzo[d]imidazol-2-yl)ethyl)cyclobutyl)amino)methyl)tetrahydrofuran-3,4-diol]: less than 100 nM.
Consider `CN(C[C@H]1O[C@@H](n2cnc3c(N)ncnc32)[C@H](O)[C@@H]1O)C1CC(CCc2nc3cc(C4(C)CCC4)ccc3[nH]2)C1` (stereo partly drawn) [Compound 33, (2R,3R,4S,5R)-2-(6-amino-9H-purin-9-yl)-5-((methyl(3-(2-(5-(1-methylcyclobutyl)-1H-benzo[d]imidazol-2-yl)ethyl)cyclobutyl)amino)methyl)tetrahydrofuran-3,4-diol], for which the IC50 is less than 100 nM.
Consider `CN(C[C@H]1O[C@@H](n2cnc3c(N)ncnc32)[C@H](O)[C@@H]1O)[C@H]1C[C@H](CCc2nc3cc(C4(C)CCC4)ccc3[nH]2)C1` [Compound 34], for which the IC50 was less than 100 nM.
As for `CN(C[C@H]1C[C@@H](n2ccc3c(N)ncnc32)[C@H](O)[C@@H]1O)[C@H]1C[C@@H](CCc2nc3cc(C4(C)CCC4)ccc3[nH]2)C1` [Compound 36, (1R,2S,3R,5R)-3-(4-amino-7H-pyrrolo[2,3-d]pyrimidin-7-yl)-5-((methyl((1r,3S)-3-(2-(5-(1-methylcyclobutyl)-1H-benzo[d]imidazol-2-yl)ethyl)cyclobutyl)amino)methyl)cyclopentane-1,2-diol], the IC50 is less than 100 nM.
As to `CN(C[C@H]1C[C@@H](n2ccc3c(N)ncnc32)[C@H](O)[C@@H]1O)[C@H]1C[C@@H](CCc2nc3cc(OC(F)(F)F)ccc3[nH]2)C1` [Compound 37, (1R,2S,3R,5R)-3-(4-amino-7,1-pyrrolo[2,3-d]pyrimidin-7-yl)-5-((methyl((1r,3S)-3-(2-(5-(trifluoromethoxy)-1H-benzo[d]imidazol-2-yl)ethyl)cyclobutyl)amino)methyl)cyclopentane-1,2-diol], the IC50 was less than 100 nM.
The figure for `CCN(C[C@H]1C[C@@H](n2ccc3c(N)ncnc32)[C@H](O)[C@@H]1O)[C@H]1C[C@@H](CCc2nc3cc(C(C)(C)C)ccc3[nH]2)C1` [Compound 38, (1R,2S,3R,5R)-3-(4-amino-7H-pyrrolo[2,3-d]pyrimidin-7-yl)-5-((((1r,3S)-3-(2-(5-(tert-butyl)-1H-benzo[d]imidazol-2-yl)ethyl)cyclobutyl)(ethyl)amino)methyl)cyclopentane-1,2-diol] is less than 100 nM.
Next, `CN(C[C@H]1C[C@@H](n2ccc3c(N)ncnc32)[C@H](O)[C@@H]1O)[C@H]1C[C@H](CCc2nc3cc(C4(C)CCC4)ccc3[nH]2)C1` [Compound 39]: less than 100 nM; `CC(C)(C)c1ccc2[nH]c(CC[C@H]3C[C@@H](N(CC4CC4)C[C@H]4C[C@@H](n5ccc6c(N)ncnc65)[C@H](O)[C@@H]4O)C3)nc2c1` [Compound 40, (1R,2S,3R,5R)-3-(4-amino-7H-pyrrolo[2,3-d]pyrimidin-7-yl)-5-((((1r,3S)-3-(2-(5-(tert-butyl)-1H-benzo[d]imidazol-2-yl)ethyl)cyclobutyl)(cyclopropylmethyl)amino)methyl)cyclopentane-1,2-diol]: less than 100 nM.
As to `CC(C)N(C[C@H]1C[C@@H](n2ccc3c(N)ncnc32)[C@H](O)[C@@H]1O)[C@H]1C[C@@H](CCc2nc3cc(C(C)(C)C)ccc3[nH]2)C1` [Compound 41, (1R,2S,3R,5R)-3-(4-amino-7H-pyrrolo[2,3-d]pyrimidin-7-yl)-5-((((1r,3S)-3-(2-(5-(tert-butyl)-1H-benzo[d]imidazol-2-yl)ethyl)cyclobutyl)(isopropyl)amino)methyl)cyclopentane-1,2-diol], the IC50 was less than 100 nM.
The figure for `CC(C)(C)c1ccc2[nH]c(CC[C@H]3C[C@@H](N(CC4CCC4)C[C@H]4C[C@@H](n5ccc6c(N)ncnc65)[C@H](O)[C@@H]4O)C3)nc2c1` [Compound 42, (1R,2S,3R,5R)-3-(4-amino-7H-pyrrolo[2,3-d]pyrimidin-7-yl)-5-((((1r,3S)-3-(2-(5-(tert-butyl)-1H-benzo[d]imidazol-2-yl)ethyl)cyclobutyl)(cyclobutylmethyl)amino)methyl)cyclopentane-1,2-diol] is less than 100 nM.
Regarding `CC(C)(C)c1ccc2[nH]c(CCC3CC(N(C[C@H]4C[C@@H](n5ccc6c(N)ncnc65)[C@H](O)[C@@H]4O)C4CCC4)C3)nc2c1` (stereo partly drawn) [Compound 43, (1R,2S,3R,5R)-3-(4-amino-7H-pyrrolo[2,3-d]pyrimidin-7-yl)-5-(((3-(2-(5-(tert-butyl)-1H-benzo[d]imidazol-2-yl)ethyl)cyclobutyl)(cyclobutyl)amino)methyl)cyclopentane-1,2-diol], the IC50 is less than 100 nM.
In the case of `CC(C)(C)c1ccc2[nH]c(CCC3CC(N(CC4CC4)C[C@H]4C[C@@H](n5ccc6c(N)ncnc65)[C@H](O)[C@@H]4O)C3)nc2c1` (stereo partly drawn) [Compound 44, (1R,2S,3R,5R)-3-(4-amino-7H-pyrrolo[2,3-d]pyrimidin-7-yl)-5-(((3-(2-(5-(tert-butyl)-1H-benzo[d]imidazol-2-yl)ethyl)cyclobutyl)(cyclopropylmethyl)amino)methyl)cyclopentane-1,2-diol], the IC50 is less than 100 nM.
Next, `CC(C)CN(C[C@H]1C[C@@H](n2ccc3c(N)ncnc32)[C@H](O)[C@@H]1O)C1CC(CCc2nc3cc(C(C)(C)C)ccc3[nH]2)C1` (stereo partly drawn) [Compound 45, (1R,2S,3R,5R)-3-(4-amino-7H-pyrrolo[2,3-d]pyrimidin-7-yl)-5-(((3-(2-(5-(tert-butyl)-1H-benzo[d]imidazol-2-yl)ethyl)cyclobutyl)(isobutyl)amino)methyl)cyclopentane-1,2-diol]: less than 100 nM.

These data come from patent US8580762B2, “Substituted purine and 7-deazapurine compounds” (Epizyme, Inc., priority 2010, dated 2013).
